The subject of test [1] is NIH3T3 cells expressing AcGFP-PDE5A fusions. The test is described as follows: FACS analysis of C-terminal PDE5A mutants (AcGFP-PDE5A fusions), Sildenafil vs vehicle. The test is classed as cell-based, mouse. The settings on record: Table 2, 24 hours; for Mean Fluorescence intensity: NIH3T3; for Stabilization ratio: fold change in GFP intensity, Sildenafil 10 μM vs vehicle alone. How it is done:
(§1) The NIH3T3 cell line was cultured in DMEM supplemented with 10% heat-inactivated donor bovine serum (Invitrogen), 2 mM glutamine, 100 U/ml penicillin and 100 μg/ml streptomycin.
(§2) The ΦNX ecotropic packaging cell line was transfected using standard Lipofectamine 2000 protocols. Viral supernatants were harvested 48 hours, post transfection, filtered and concentrated 10-fold using Amicon Ultra centrifugal filter device with a 100kDa cutoff. NIH 3T3 cells were incubated with concentrated retroviral supernatants supplemented with 4 μg/ml polybrene for 4 hours at 37° C. Cells were washed once with PBS and cultured in growth media for 24-36 hours to allow for viral integration.
(§3) The transduced NIH3T3 cells were subjected to analysis using fluorescence-activated cell sorting (FACS) to screen the libraries of PDE5A mutants. 24 hours prior to analysis, transduced NIH3T3 cells were plated at 1×10^5 cells per well of a 12-well plate. Cells were removed from the plate using PBS and 2 mM EDTA, washed once with PBS, and resuspended in 200 μL, PBS. FACS analysis was performed on instruments at the Stanford Shared FACS Facility with 10,000 events represented.
(§4) To identify destabilizing domains that are responsive to the PDE5A ligand, Sildenafil, a cell-based screening assay was employed in which the fluorescence of green fluorescent protein derived from Aequorea coerulescens (AcGFP) served as an indicator of PDE5A stability. A library based on the PDE5A catalytic domain sequences was generated using error prone PCR and then cloned in-frame in front of AcGFP. A Moloney murine leukemia retroviral expression was used to stably integrate this library of PDE5A-AcGFP fusions into NIH-3T3 fibroblasts, and the transduced cells were subjected to three rounds of sorting using flow cytometry. In the first round, cells were treated with 10 μM of PDE5A ligand, Sildenafil for 16-24 before analysis. Fluorescent cells were collected and further cultured in the absence of ligand for 60 hours.
(§5) A library of AcGFP-PDE5A fusions i.e., C-terminal PDE5A mutants was screened using the cell-based screening assay described previously to identify C-terminal destabilizing domains. […] Identified candidates were subjected to further characterization by FACS. Cells were split into two treatment groups and incubated with either Sildenafil (10 μM) or vehicle alone for 24 hours. Cells that were mock transduced or transduced with the wild-type PDE5A construct were also included in the analysis. The stabilization ratio was calculated as the fold change in GFP intensity of the AcGFP-PDE5A construct in Sildenafil treated sample compared to vehicle alone treated sample. The results are presented in Table 2 where the C terminal PDE5A mutants are denoted as PDE5AC.
Residue D764 was identified as a mutational hotspot from sequence analysis. PDE5AC (#41) was engineered with either D764N or D764G mutation via site-directed mutagenesis. PDE5AC (#41) +D764N comprises the amino acid sequence of SEQ ID NO. 53 (encoded by SEQ ID NO. 54) and PDE5AC (#41) +D764G comprises the amino acid sequence of SEQ ID NO. 55 (encoded by SEQ ID NO. 56). AcGFP-PDE5A variants were evaluated for Sildenafil dependent stabilization via FACS as described previously. Results from FACS analysis are presented in Table 4 where the C terminal PDE5A mutants are denoted as PDE5AC. The stabilization ratio was calculated as the fold change in GFP intensity of the AcGFP-PDE5A construct in Sildenafil treated sample compared to vehicle alone treated sample.
Extended versions of human PDE5A that included residues in addition to catalytic domain (residues 535-860 of SEQ ID NO. 1) with Q589R polymorphism (SEQ ID NO. 11) were evaluated for use as C-terminal destabilizing domains. Three extended PDE5A sequences were tested that consisted of residues 535-875 of SEQ ID NO. 1 with Q589R polymorphism (SEQ ID NO. 13); residues 466-875 of SEQ ID NO. 1 with Q589R polymorphism (SEQ ID NO. 15); or residues 420-875 of SEQ ID NO. […]
A general note: In flow cytometry, cells or beads pass a laser one at a time.

For a further test, the system named is PDE5A-AcGFP fusions. The test is described as follows: FACS analysis of N-terminal PDE5A mutants (PDE5A-AcGFP fusions), Sildenafil vs vehicle. The test is classed as cell-based, mouse. Conditions: 24 hours; for Stabilization ratio: Sildenafil 20 μM vs vehicle alone; for Mean Fluorescence Intensity (MFI) Sildenafil (20 μM) / Mean Fluorescence Intensity (MFI) Vehicle control: NIH3T3; for Mean Fluorescence Intensity (MFI) Vehicle control: vehicle alone. How it is done: as §1, §2, §3, §4
as §5, with “PDE5A-AcGFP” for “AcGFP-PDE5A”, “N-terminal” for “C-terminal”, “mutants,” for “mutants”, “(20” for “(10”, “The results are presented in Table 6 where the N terminal PDE5A mutants are denoted as PDE5AN. The” for “The”, “sample.” for “sample. The results are presented in Table 2 where the C terminal PDE5A mutants are denoted as PDE5AC.”

The target of test [2] is T1, HCT 116 cells transduced with the PDE5A DD derived GFP constructs (Homo sapiens, UniProt O76074, K633E/K795E/K852E/Q589R/T712S).
T1 construct: Mutations were created in PDE5A (535-860) catalytic domain using site directed mutagenesis; expressed in transfected cells; host or cells: HCT116 (lentiviral transduction, pELNS vector, sorted on mCherry)
The test is described as follows: Response to Tadalafil, GFP expression by FACS in HCT116. It counts as cell-based. Conditions: 48 hrs, HCT116. A digest of the protocol: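 HCT116 cells stably transduced (mCherry-sorted) with lentiviral PDE5A DD–AcGFP constructs, exposed to DMSO or Tadalafil 0.01–100 μM for 48 hrs. GFP mean fluorescence by FACS; stabilization ratio = ligand vs no-ligand signal, basal expression = no-ligand signal vs parental autofluorescence.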

Where [3] appears, read: Sildenafil (10 μM) −, vehicle alone.

These results are taken from patent US11891634B2, “PDE5A destabilizing domains” (The Board of Trustees of the Leland Stanford Junior …, priority 2017, dated 2024).

As for “PDE5AC (#13): AcGFP fused to C-terminal DD 535-860 of PDE5A (Q589R, Y676D, L738H), SEQ ID NO. 24”, the “Mean Fluorescence intensity” value in test [1] (Sildenafil (10 μM) +) was determined as 6284; in test [1] (setting [3]), 1076. The Stabilization ratio in test [1] was 5.8.
“PDE5AC (#25): AcGFP fused to C-terminal DD 535-860 of PDE5A (Q541R, F559L, Q589R, H678R, I824T), SEQ ID NO. 35”: the “Mean Fluorescence intensity” value stood at 2340 in test [1] (Sildenafil (10 μM) +) and 1452 in test [1] (setting [3]). Also, in test [1], the Stabilization ratio turned out to be 1.6.
As to “PDE5AC (#28): AcGFP fused to C-terminal DD 535-860 of PDE5A (Q589R, K591E, N609H, D764V), SEQ ID NO. 25”, the “Mean Fluorescence intensity” value in test [1] (Sildenafil (10 μM) +) amounted to 6055; in test [1] (setting [3]), 1382. In test [1], the Stabilization ratio is given as 4.4.
In the same order, the values of “PDE5AC (#43): AcGFP fused to C-terminal DD 535-860 of PDE5A (Q589R, N609H, Y676N, A762S), SEQ ID NO. 29” are 5518, 1017 and 5.4.
On the same counts, the results for “PDE5AC (#69): AcGFP fused to C-terminal DD 535-860 of PDE5A (Q589R, N636S, D687A, D764N, S815C), SEQ ID NO. 30” are 6365, 1126 and 5.6.
Consider “PDE5AN (#3): N-terminal DD 535-860 of PDE5A (Q589R, K633E, T712S, K852E, K795E), SEQ ID NO. 66, fused to AcGFP”, for which, in the test on PDE5A-AcGFP fusions, the “Stabilization ratio” value worked out at 3.97, the “Mean Fluorescence Intensity (MFI) Sildenafil (20 μM)” value is listed as 3335 and the “Mean Fluorescence Intensity (MFI) Vehicle control” value is listed as 839. In addition, in test [2], the “Tadalafil concentrations at which stabilization ratios greater than 1 were obtained” value is on record as “greater than 0.41 μM”.
As to “PDE5AN (#53): N-terminal DD 535-860 of PDE5A (E536G, Q589R, C839S), SEQ ID NO. 67, fused to AcGFP”, in the test on PDE5A-AcGFP fusions, the “Stabilization ratio” value is 2.62, the “Mean Fluorescence Intensity (MFI) Sildenafil (20 μM)” value is reported as 4440 and the “Mean Fluorescence Intensity (MFI) Vehicle control” value is recorded as 1697.
